Results published in PMC4703387, “Identification of the Calmodulin-Binding Domains of Fas Death Receptor” (PLoS ONE, 2016).
Where no end group is shown, it is not given here.

Assays:
Ca^2+/CaM [1] = target: T1, Ca^2+/CaM (Homo sapiens, UniProt P0DP23); experiment: Isothermal titration calorimetry (ITC), Ca^2+/CaM titrated into peptide; type: binding
T1 construct: made in house
Procedure: Thermodynamic parameters of Ca^2+/CaM binding to Fas-Pep1 and Fas-Pep2 peptides were determined using an Auto-iTC200 microcalorimeter (Malvern Instruments). […] Heat of reaction of Ca^2+/CaM was measured over 19 injections at 25°C for Fas-Pep1 or 35°C for Fas-Pep2. Heat of dilution was measured by titrating Ca^2+/CaM into buffer. Data analysis was performed using the Microcal Origin package (ver. 8.1). Baseline corrections were performed by subtracting heat of dilution from the raw Ca^2+/CaM-peptide titration data. Binding curves were analyzed and dissociation constants (Kd) were determined by nonlinear least-square fitting of the baseline-corrected data. The formula used to fit the data as one binding site is: ΔQ(i)=Q(i)+(dVi/Vo)[(Q(i)+Q(i−1))/2]–Q(i–1) where ΔQ(i) is the heat released at i^th injection, Q(i) is the total heat content of the solution, dVi is injection volume, and Vo is total volume. Three replicate titration experiments were typically performed for each peptide.
Although it is recognized that the most frequent mechanism of CaM binding to target proteins involves the hydrophobic surfaces on the N- and C-terminal lobes,[23] electrostatic interactions also contribute to the formation and stabilization of CaM-protein complexes since CaM is acidic and CaM-binding motifs are often basic.[44, 45] The thermodynamic parameters of binding and the relative contribution of hydrophobic vs. electrostatic factors are often assessed by ITC methods, yielding various parameters such as dissociation constant (Kd), stoichiometry (n), enthalpy change (ΔH°) and entropy change (ΔS°). The thermodynamic parameters of Ca^2+/CaM binding to Fas-Pep1 and Fas-Pep2 were assessed by ITC.

Ca^2+/CaM [2] = target: T1, Ca^2+/CaM; experiment: Circular dichroism (CD) spectroscopy; type: physicochemical; conditions: 25°C, 10 mM HEPES (pH 7), 50 mM KCl, 2.5 mM CaCl2
Procedure: CD spectra were acquired on a Jasco J815 spectropolarimeter at 25°C from 260 to 185 nm. Scanning rate was set to 50 nm/min. Loading concentrations were ~16–20 μM for free peptides, 18 μM for free Ca^2+/CaM and 10 μM for the complexes in a buffer containing 10 mM HEPES (pH 7), 50 mM KCl, and 2.5 mM CaCl2. The background signal from the buffer solution was subtracted from each spectrum. Ca^2+/CaM complexes with peptides were run on gel filtration column (as described above) to ensure high purity and homogeneity prior to collection of the CD spectra.

[3] = as Kd (ITC), 25°C Fas-Pep1, 35°C Fas-Pep2

“VQDTAEQKVQLLRNWHQLHGKKEAYDTLIKDLKKANLC [Fas-Pep2]” was tested, and the “thermodynamic driving force of binding” value (Ca^2+/CaM [1]; ITC) was “enthalpically driven”, the “n (stoichiometry, ITC)” value (Ca^2+/CaM [1]; as Kd (ITC)) was 0.9 and the “ΔH°” value (Ca^2+/CaM [1]; [3]) was -14.2 kcal/mol. For the same sequence, the “ΔS°” value (Ca^2+/CaM [1]; [3]) was -18.8 cal/mol/K, the “change in CD signal at 208 and 222 nm of Ca^2+/CaM on peptide binding” value (Ca^2+/CaM [2]; complex 10 μM) was “An increase in the intensity of the CD signal at 208 and 222 nm” and the “secondary structure of free peptide/protein” value (Ca^2+/CaM [2]; far-UV CD, ~16–20 μM peptide, 18 μM Ca^2+/CaM) was “random coil”.
